These results are taken from patent publication US9290454B2, “Substituted isoquinolines as CRTH2 receptor modulators” (Merck Sharp & Dohme Corp., priority 2012, dated 2016).

pKi: −log10 of the molar value.

Sequence of hCRTH2 (Q9Y5Y4 whole entry): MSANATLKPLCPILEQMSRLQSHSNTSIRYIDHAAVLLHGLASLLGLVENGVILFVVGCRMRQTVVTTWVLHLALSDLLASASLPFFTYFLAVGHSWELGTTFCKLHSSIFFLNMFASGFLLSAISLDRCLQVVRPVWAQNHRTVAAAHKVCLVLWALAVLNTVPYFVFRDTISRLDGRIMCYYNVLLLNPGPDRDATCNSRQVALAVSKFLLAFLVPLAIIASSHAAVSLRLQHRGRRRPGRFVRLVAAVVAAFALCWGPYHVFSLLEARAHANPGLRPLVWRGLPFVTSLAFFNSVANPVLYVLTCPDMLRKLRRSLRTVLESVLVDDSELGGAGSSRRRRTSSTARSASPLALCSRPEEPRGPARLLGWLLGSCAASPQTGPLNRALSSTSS

The assay addresses hCRTH2 (Homo sapiens (Human), UniProt Q9Y5Y4). In words: Radioligand binding assay ([3H]-PGD2, SPA or filtration). Conditions: [3H]-PGD2 competition, membrane protein from HEK-hCRTH2 cell line, room temperature, SPA or filtration format. As to the method: Radioligand binding was performed using filtration or scintillation proximity assay (SPA) technology. SPA assays were done at room temperature in 10 mM HEPES pH 7.4, 1 mM EDTA containing 2 mM MnCl2 and 16 nM [^3H]-PGD2 (PerkinElmer, Waltham, Mass.) (164 Ci mmol-1), in a final volume of 0.05 mL. Competing ligands were diluted in dimethylsulfoxide and added using very low volumes (500 nL). The reaction was initiated by the addition of a mixture of 3.52 ug of membrane protein prepared from a human embryonic kidney (HEK)-hCRTH2 cell line adhered to 140 ug of wheatgerm agglutinin SPA beads (PerkinElmer). Total and non-specific binding were determined in the absence and the presence of a CRTH2 antagonist, respectively. The reaction was routinely conducted for 60 minutes at room temperature followed by centrifugation for 5 minutes at 1000 RPM. The radioactivity was measured with a TopCountNXT (PerkinElmer). Filtration binding assays were done in a similar way with minor differences. The assay volume was 0.20 mL and competing ligands in dimethylsulfoxide were added in 2 uL. [^3H]-PGD2 was used at 0.6 nM, and reactions were initiated by the addition of 10 ug of membrane protein. Reactions were terminated by filtration through GF/C filter plates (PerkinElmer) presoaked in 10 mM HEPES. After washing with buffer, plates were dried in a 50° C. oven for 1 h, scintillation cocktail was added and radioactivity was measured. Results determined using the SPA-based assay were similar to those from the filtration binding assay. Table A (below) sets forth the results of the binding assay for representative compounds of the invention.
In general, pKi refers to −log10 of the Ki, conventionally taken in molar units. With `C[C@@H](NC(=O)c1ccc2c(=O)n(-c3ccc(F)cc3)c(CC(=O)O)cc2c1)c1ccc(F)cc1` [Example 2.1, (R)-2-(2-(4-fluorophenyl)-6-((1-(4-fluorophenyl)ethyl)carbamoyl)-1-oxo-1,2-dihydroisoquinolin-3-yl)acetic acid], the pKi was 5.31.

`C[C@@H]1CN(c2ccc(F)cc2)CCN1C(=O)c1ccc2c(=O)n(-c3ccc(F)cc3)c(CCCCC(=O)O)cc2c1` [Example 4.1, (R)-5-(2-(4-fluorophenyl)-6-(4-(4-fluorophenyl)-2-methylpiperazine-1-carbonyl)-1-oxo-1,2-dihydroisoquinolin-3-yl)pentanoic acid]: the pKi was 7.65.

In turn, `COc1ccc(-n2c(CCCCC(=O)O)cc3cc(C(=O)N[C@H](C)c4ccc(F)cc4)ccc3c2=O)cc1` [Example 3.3, (R)-5-(6-((1-(4-fluorophenyl)ethyl)carbamoyl)-2-(4-methoxyphenyl)-1-oxo-1,2-dihydroisoquinolin-3-yl)pentanoic acid] had a pKi of 8.09.

`C[C@@H]1CN(c2ccccc2)CCN1C(=O)c1ccc2c(=O)n(-c3ccc(F)cc3)c(CCCCC(=O)NS(=O)(=O)C3CC3)cc2c1` [Example 8.4, (R)-N-(cyclopropylsulfonyl)-5-(2-(4-fluorophenyl)-6-(2-methyl-4-phenylpiperazine-1-carbonyl)-1-oxo-1,2-dihydroisoquinolin-3-yl)pentanamide] showed a pKi of 7.43.

In the case of `CC(c1ccc(F)cc1)c1nc(-c2ccc3c(=O)n(-c4ccc(F)cc4)c(CCCCC(=O)O)cc3c2)no1` (stereo not shown) [Example 7.3, 5-(2-(4-fluorophenyl)-6-(5-(1-(4-fluorophenyl)ethyl)-1,2,4-oxadiazol-3-yl)-1-oxo-1,2-dihydroisoquinolin-3-yl)pentanoic acid], the pKi is 7.90.

In turn, `COc1ccccc1-n1c(CCCCC(=O)O)cc2cc(C(=O)N[C@H](C)c3ccc(F)cc3)ccc2c1=O` (single isomer, unassigned) [Example 3.7] showed a pKi of 7.73.

Compound `O=C(O)CCCCc1cc2cc(C(=O)N[C@@H]3CCCc4ccccc43)ccc2c(=O)n1-c1ccc(F)cc1` [Example 3.1, (R)-5-(2-(4-fluorophenyl)-1-oxo-6-((1,2,3,4-tetrahydronaphthalen-1-yl)carbamoyl)-1,2-dihydroisoquinolin-3-yl)pentanoic acid] showed a pKi of 8.24.

Regarding `C[C@@H]1CN(c2ccc(F)cc2)CCN1C(=O)c1ccc2c(=O)n(-c3ccc(F)cc3)c(CCCCC(=O)NS(=O)(=O)C3CC3)cc2c1` [Example 8.3, (R)-N-(cyclopropylsulfonyl)-5-(2-(4-fluorophenyl)-6-(4-(4-fluorophenyl)-2-methylpiperazine-1-carbonyl)-1-oxo-1,2-dihydroisoquinolin-3-yl)pentanamide], the pKi was 7.77. Compared with the last compound, the pKi is 0.47 log units lower.

Compound `O=C(O)CCCCc1cc2cc(-c3noc(-c4ccc(C(F)(F)F)cc4)n3)ccc2c(=O)n1-c1ccc(F)cc1` [Example 7.4, 5-(2-(4-fluorophenyl)-1-oxo-6-(5-(4-(trifluoromethyl)phenyl)-1,2,4-oxadiazol-3-yl)-1,2-dihydroisoquinolin-3-yl)pentanoic acid] showed a pKi of 7.83.

`COc1ccccc1-n1c(CCCCC(=O)O)cc2cc(C(=O)N[C@H](C)c3ccc(F)cc3)ccc2c1=O` (single isomer, unassigned) [Example 3.6]: the pKi was 6.44. This pKi lies 1.39 log units lower than the previous one.

In turn, `COc1cccc(-n2c(CCCCC(=O)O)cc3cc(C(=O)N[C@H](C)c4ccc(F)cc4)ccc3c2=O)c1` [Example 3.5, (R)-5-(6-((1-(4-fluorophenyl)ethyl)carbamoyl)-2-(3-methoxyphenyl)-1-oxo-1,2-dihydroisoquinolin-3-yl)pentanoic acid] had a pKi of 7.88. Against the preceding compound, the pKi is 1.44 log units higher.

`C[C@@H](NC(=O)c1ccc2c(=O)n(Cc3ccc(F)cc3)c(CCCCC(=O)O)cc2c1)c1ccc(F)cc1` [Example 1.2, (R)-5-(2-(4-fluorobenzyl)-6-((1-(4-fluorophenyl)ethyl)carbamoyl)-1-oxo-1,2-dihydroisoquinolin-3-yl)pentanoic acid] gave a pKi of 7.31.

`O=C(O)CCCCc1cc2cc(-c3cc(Cc4ccc(F)cc4)on3)ccc2c(=O)n1-c1ccc(F)cc1` [Example 5.1, 5-(6-(5-(4-fluorobenzyl)isoxazol-3-yl)-2-(4-fluorophenyl)-1-oxo-1,2-dihydroisoquinolin-3-yl)pentanoic acid] gave a pKi of 7.99.

`C[C@@H](NC(=O)c1ccc2c(=O)n(Cc3ccccc3)c(CCCCC(=O)O)cc2c1)c1ccc(F)cc1` [Example 1.1, (R)-5-(2-benzyl-6-((1-(4-fluorophenyl)ethyl)carbamoyl)-1-oxo-1,2-dihydroisoquinolin-3-yl)pentanoic acid]: the pKi is 7.42. Compared with the last compound, the pKi is 0.57 log units lower.

`O=C(O)CCCCc1cc2cc(C(=O)N[C@@H]3CCCc4cc(F)ccc43)ccc2c(=O)n1-c1ccc(F)cc1` [Example 3.2, (R)-5-(6-((6-fluoro-1,2,3,4-tetrahydronaphthalen-1-yl)carbamoyl)-2-(4-fluorophenyl)-1-oxo-1,2-dihydroisoquinolin-3-yl) pentanoic acid] had a pKi of 8.19. Against the preceding compound, the pKi is 0.77 log units higher.

`O=C(O)CCCCc1cc2cc(C(=O)NC3CC(=O)Nc4ccccc43)ccc2c(=O)n1-c1ccc(F)cc1` (stereo not shown) [Example 4.3, 5-(2-(4-fluorophenyl)-1-oxo-6-((2-oxo-1,2,3,4-tetrahydroquinolin-4-yl)carbamoyl)-1,2-dihydroisoquinolin-3-yl)pentanoic acid] had a pKi of 7.68.

With `C[C@@H]1CN(c2ccccc2)CCN1C(=O)c1ccc2c(=O)n(-c3ccc(F)cc3)c(CCCCC(=O)O)cc2c1` [Example 4.2, (R)-5-(2-(4-fluorophenyl)-6-(2-methyl-4-phenylpiperazine-1-carbonyl)-1-oxo-1,2-dihydro-isoquinolin-3-yl)pentanoic acid], the pKi was 7.87.

For the compound `O=C(CCCCc1cc2cc(-c3cc(Cc4ccc(F)cc4)on3)ccc2c(=O)n1-c1ccc(F)cc1)NS(=O)(=O)C1CC1` [Example 8.5, N-(cyclopropylsulfonyl)-5-(6-(5-(4-fluorobenzyl)isoxazol-3-yl)-2-(4-fluorophenyl)-1-oxo-1,2-dihydroisoquinolin-3-yl)pentanamide], the pKi was 7.77.

The compound `C[C@@H](NC(=O)c1ccc2c(=O)n(-c3ccc(F)cc3)c(CCCCC(=O)O)cc2c1)c1ccc(F)cc1` [Example 4.4, (R)-5-(2-(4-fluorophenyl)-6-((1-(4-fluorophenyl)ethyl)carbamoyl)-1-oxo-1,2-dihydroisoquinolin-3-yl)pentanoic acid] showed a pKi of 8.29.

With `O=C(CCCCc1cc2cc(-c3noc(Cc4ccc(F)cc4)n3)ccc2c(=O)n1-c1ccc(F)cc1)NS(=O)(=O)C1CC1` [Example 8.6, N-(cyclopropylsulfonyl)-5-(6-(5-(4-fluorobenzyl)-1,2,4-oxadiazol-3-yl)-2-(4-fluorophenyl)-1-oxo-1,2-dihydroisoquinolin-3-yl)pentanamide], the pKi was 7.76.

`C[C@@H](NC(=O)c1ccc2c(=O)n(-c3ccc(F)cc3)c(CCCCC(=O)NS(=O)(=O)C3CC3)cc2c1)c1ccc(F)cc1` [Example 8.2, (R)-3-(5-(cyclopropanesulfonamido)-5-oxopentyl)-2-(4-fluorophenyl)-N-(1-(4-fluorophenyl)ethyl)-1-oxo-1,2-dihydroisoquinoline-6-carboxamide] gave a negative logarithm of the Ki (pKi) of 7.83.

In turn, `C[C@@H](NC(=O)c1ccc2c(=O)n(-c3ccc(C#N)cc3)c(CCCCC(=O)O)cc2c1)c1ccc(F)cc1` [Example 3.4, (R)-5-(2-(4-cyanophenyl)-6-((1-(4-fluorophenyl)ethyl)carbamoyl)-1-oxo-1,2-dihydroisoquinolin-3-yl)pentanoic acid] showed a pKi of 8.05.
